Reference: patent publication US10945432B2, “Active compound combinations comprising a (thio)carboxamide derivative and a fungicidal compound” (BAYER CROPSCIENCE AKTIENGESELLSCHAFT, priority 2013, dated 2021)

Experiments:
Format in all cases: in vivo
Botrytis cinerea = test: Botrytis test (beans)/preventive; conditions: Table B1, 2 days after inoculation
Procedure: (§1) • Solvent: 24.5 parts by weight of acetone • 24.5 parts by weight of dimethylacetamide • Emulsifier: 1 part by weight of alkylaryl polyglycol ether
(§2) To produce a suitable preparation of active compound, 1 part by weight of active compound is mixed with the stated amounts of solvent and emulsifier, and the concentrate is diluted with water to the desired concentration.
To test for preventive activity, young plants are sprayed with the preparation of active compound. After the spray coating has dried on, 2 small pieces of agar covered with growth of Botrytis cinerea are placed on each leaf. The inoculated plants are placed in a darkened chamber at 20° C. and a relative atmospheric humidity of 100%.
2 days after the inoculation, the size of the lesions on the leaves is evaluated. 0% means an efficacy which corresponds to that of the untreated control, while an efficacy of 100% means that no disease is observed.

Venturia inaequalis = test: Venturia test (apples)/preventive; conditions: 10 days after inoculation
Procedure: as §1, §2
To test for preventive activity, young plants are sprayed with the preparation of active compound at the stated rate of application. After the spray coating has dried on, the plants are inoculated with an aqueous conidia suspension of the causal agent of apple scab (Venturia inaequalis) and then remain for 1 day in an incubation cabinet at approximately 20° C. and a relative atmospheric humidity of 100%. The plants are then placed in a greenhouse at approximately 21° C. and a relative atmospheric humidity of approximately 90%.
The test is evaluated 10 days after the inoculation. 0% means an efficacy which corresponds to that of the untreated control, while an efficacy of 100% means that no disease is observed.

Pyrenophora teres = test: Pyrenophora teres-test (barley)/preventive; conditions: Table C1, 8 days after inoculation
Procedure: (§3) • Solvent: 49 parts by weight of N,N-dimethylacetamide • Emulsifier: 1 part by weight of alkylaryl polyglycol ether
(§4) To produce a suitable preparation of active compound, 1 part by weight of active compound or active compound combination is mixed with the stated amounts of solvent and emulsifier, and the concentrate is diluted with water to the desired concentration.
(§5) To test for preventive activity, young plants are sprayed with the preparation of active compound or active compound combination at the stated rate of application. After the spray coating has been dried, the plants are sprayed with a spore suspension of Pyrenophora teres. The plants remain for 48 hours in an incubation cabinet at approximately 20° C. and a relative atmospheric humidity of approximately 100%. The plants are placed in the greenhouse at a temperature of approximately 20° C. and a relative atmospheric humidity of approximately 80%.
The test is evaluated 8 days after the inoculation. 0% means an efficacy which corresponds to that of the untreated control, while an efficacy of 100% means that no disease is observed.

Sphaerotheca fuliginea = test: Sphaerotheca test (cucumbers)/preventive; conditions: Table E1, 7 days after inoculation
Procedure: as §1, §2
(§6) To test for preventive activity, young plants are sprayed with the preparation of active compound at the stated rate of application. After the spray coating has dried on, the plants are inoculated with an aqueous spore suspension of Sphaerotheca fuliginea. The plants are then placed in a greenhouse at approximately 23° C. and a relative atmospheric humidity of approximately 70%.
The test is evaluated 7 days after the inoculation. 0% means an efficacy which corresponds to that of the untreated control, while an efficacy of 100% means that no disease is observed.

Septoria tritici = test: Septoria tritici-test (wheat)/preventive; conditions: 21 days after inoculation
Procedure: as §3, §4
as §5, with “suspension of Septoria tritici. The plants” for “suspension of Pyrenophora teres. The plants”, “of approximately 100% and afterwards for 60 hours at approximately 15° C. in a translucent incubation cabinet at a relative atmospheric humidity of approximately 100%. The” for “of approximately 100%. The”, “of approximately 15° C. and” for “of approximately 20° C. and”
The test is evaluated 21 days after the inoculation. 0% means an efficacy which corresponds to that of the untreated control, while an efficacy of 100% means that no disease is observed.

Alternaria solani = test: Alternaria test (tomatoes)/preventive; conditions: 3 days after inoculation
Procedure: as §1, §2
as §6, with “Alternaria solani.” for “Sphaerotheca fuliginea.”, “an incubation cabinet” for “a greenhouse”, “20°” for “23°”, “100%.” for “approximately 70%.”
The test is evaluated 3 days after the inoculation. 0% means an efficacy which corresponds to that of the untreated control while an efficacy of 100% means that no disease is observed.

CC1(C)N=C(c2cnc3ccccc3c2)c2ccccc2C1(F)F [b27, 3-(4,4-difluoro-3,3-dimethyl-3,4-dihydroisoquinolin-1-yl)quinoline]
Efficacy in % found (Botrytis cinerea; 1 ppm a.i.): 60% | Efficacy in % found (Venturia inaequalis; Table F1, 0.5 ppm a.i.): 23% | Efficacy in % found (Pyrenophora teres; 60 ppm a.i.): 38% | Efficacy in % found (Pyrenophora teres; 240 ppm a.i.): 75%

CON(C(=O)c1cn(C)nc1C(F)F)C(C)Cc1c(Cl)cc(Cl)cc1Cl (centres unmarked) [b29, 3-(difluoromethyl)-N-methoxy-1-methyl-N-[1-(2,4,6-trichlorophenyl)propan-2-yl]-1H-pyrazole-4-carboxamide]
Efficacy in % found (Sphaerotheca fuliginea; 0.25 ppm a.i.): 30% | Efficacy in % found (Sphaerotheca fuliginea; 1 ppm a.i.): 30% | Efficacy in % found (Septoria tritici; Table D1, 5 ppm a.i.): 94%

Cc1nn(C)c(Nc2c(F)cc(Cl)cc2F)c1-c1ccc(F)cc1Cl [b39, N-(4-chloro-2,6-difluorophenyl)-4-(2-chloro-4-fluorophenyl)-1,3-dimethyl-1H-pyrazol-5-amine]
Efficacy in % found (Alternaria solani; Table A1, 1 ppm a.i.): 17% | Efficacy in % found (Septoria tritici; Table D1, 60 ppm a.i.): 50% | Efficacy in % found (Septoria tritici; Table D1, 240 ppm a.i.): 88%

CC(O)(Cn1cncn1)c1ccc(Oc2ccc(Cl)cc2)cc1C(F)(F)F (centres unmarked) [b40, 2-[4-(4-chlorophenoxy)-2-(trifluoromethyl)phenyl]-1-(1H-1,2,4-triazol-1-yl)propan-2-ol]
Efficacy in % found (Sphaerotheca fuliginea; 2.5 ppm a.i.): 37% | Efficacy in % found (Sphaerotheca fuliginea; 10 ppm a.i.): 85% | Efficacy in % found (Alternaria solani; Table A1, 2.5 ppm a.i.): 66%

CCC(O)(Cn1cncn1)c1ccc(Oc2ccc(Cl)cc2)cc1C(F)(F)F (centres unmarked) [b41, 2-[4-(4-chlorophenoxy)-2-(trifluoromethyl)phenyl]-1-(1H-1,2,4-triazol-1-yl)butan-2-ol]
Efficacy in % found (Botrytis cinerea; 10 ppm a.i.): 36% | Efficacy in % found (Pyrenophora teres; 15 ppm a.i.): 25% | Efficacy in % found (Pyrenophora teres; 60 ppm a.i.): 0%

CC1(C)CN=C(c2cnc3ccccc3c2)c2cccc(F)c2O1 [b45, 9-fluoro-2,2-dimethyl-5-(quinolin-3-yl)-2,3-dihydro-1,4-benzoxazepine]
Efficacy in % found (Venturia inaequalis; Table F2, 1 ppm a.i.): 0% | Efficacy in % found (Alternaria solani; Table A2, 0.5 ppm a.i.): 24% | Efficacy in % found (Septoria tritici; Table D2, 50 ppm a.i.): 0% | Efficacy in % found (Septoria tritici; Table D2, 200 ppm a.i.): 0%

Cc1nc2c(F)cccc2cc1Oc1cccc(F)c1C(C)(C)O [b46, 2-{2-fluoro-6-[(8-fluoro-2-methylquinolin-3-yl)oxy]phenyl}propan-2-ol]
Efficacy in % found (Venturia inaequalis; Table F2, 0.5 ppm a.i.): 18% | Efficacy in % found (Alternaria solani; Table A2, 0.5 ppm a.i.): 18% | Efficacy in % found (Alternaria solani; Table A2, 1 ppm a.i.): 24% | Efficacy in % found (Septoria tritici; Table D2, 50 ppm a.i.): 0% | Efficacy in % found (Septoria tritici; Table D2, 200 ppm a.i.): 67%

Cc1nc2c(F)c(F)ccc2cc1Oc1cccc(F)c1C(C)(C)O [b47, 2-{2-[(7,8-difluoro-2-methylquinolin-3-yl)oxy]-6-fluorophenyl}propan-2-ol]
Efficacy in % found (Venturia inaequalis; Table F2, 0.5 ppm a.i.): 30% | Efficacy in % found (Alternaria solani; Table A2, 0.5 ppm a.i.): 9% | Efficacy in % found (Alternaria solani; Table A2, 1 ppm a.i.): 29% | Efficacy in % found (Septoria tritici; Table D2, 50 ppm a.i.): 0% | Efficacy in % found (Septoria tritici; Table D2, 200 ppm a.i.): 67%

CC(C)c1ccc(Cl)cc1CN(C(=O)c1c(C(F)F)nn(C)c1F)C1CC1 [compound A5, N-(5-chloro-2-isopropylbenzyl)-N-cyclopropyl-3-(difluoromethyl)-5-fluoro-1-methyl-1H-pyrazole-4-carboxamide]
Efficacy in % found (Botrytis cinerea; 1 ppm a.i.): 15% | Efficacy in % found (Venturia inaequalis; Table F1, 0.5 ppm a.i.): 0% | Efficacy in % found (Venturia inaequalis; Table F1, 1 ppm a.i.): 0% | Efficacy in % found (Venturia inaequalis; Table F2, 0.5 ppm a.i.): 0% | Efficacy in % found (Venturia inaequalis; Table F2, 1 ppm a.i.): 0% | Efficacy in % found (Venturia inaequalis; Table F2, 2 ppm a.i.): 29% | Efficacy in % found (Pyrenophora teres; 10 ppm a.i.): 13% | Efficacy in % found (Sphaerotheca fuliginea; 0.5 ppm a.i.): 30% | Efficacy in % found (Sphaerotheca fuliginea; 1 ppm a.i.): 37% | Efficacy in % found (Alternaria solani; Table A1, 0.5 ppm a.i.): 38% | Efficacy in % found (Alternaria solani; Table A1, 1 ppm a.i.): 30% | Efficacy in % found (Alternaria solani; Table A2, 0.5 ppm a.i.): 0% | Efficacy in % found (Alternaria solani; Table A2, 1 ppm a.i.): 41% | Efficacy in % found (Septoria tritici; Table D1, 5 ppm a.i.): 50% | Efficacy in % found (Septoria tritici; Table D1, 10 ppm a.i.): 50% | Efficacy in % found (Septoria tritici; Table D2, 10 ppm a.i.): 17% | Efficacy in % found (Septoria tritici; Table D2, 20 ppm a.i.): 67%
